Values joined by “and” are separate entries in the source; they are usually repeats but may differ in a detail not shown here. Equal values may be shown once. “Also recorded” adds a separate entry of the source.
Assays:
[1] = biological target: T1, Alpha2C (Homo sapiens, UniProt P18825); assay: Secondary binding assay, Ki determination: Alpha2C
T1 construct: expressed in transfected cells
T1 sequence (P18825 1-462): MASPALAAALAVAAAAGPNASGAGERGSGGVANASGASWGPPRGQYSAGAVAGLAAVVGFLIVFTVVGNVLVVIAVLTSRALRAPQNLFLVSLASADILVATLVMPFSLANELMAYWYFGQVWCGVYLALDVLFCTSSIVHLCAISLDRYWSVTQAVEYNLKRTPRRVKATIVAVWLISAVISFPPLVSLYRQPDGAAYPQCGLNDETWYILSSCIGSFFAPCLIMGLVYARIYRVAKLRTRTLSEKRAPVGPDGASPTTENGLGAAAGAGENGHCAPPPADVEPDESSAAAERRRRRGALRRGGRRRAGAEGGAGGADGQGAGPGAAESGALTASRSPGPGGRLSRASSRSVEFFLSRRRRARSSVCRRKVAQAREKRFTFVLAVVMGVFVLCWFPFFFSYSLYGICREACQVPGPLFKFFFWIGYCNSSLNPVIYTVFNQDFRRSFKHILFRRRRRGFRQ

[2] = Cell viability assay (MTT) in MA-10 cells; type: cell-based, mouse; conditions: mouse, MA-10 Leydig cells, read-out: decrease in cell viability
Procedure: (§1) Mouse Leydig cell line (MA-10) was grown in Waymouth media containing 15% horse serum, 5% fetal bovine serum, and 1× gentamycin, which was replaced with […] G418 (geneticin) for VDAC1 knockdown (ΔVDAC1) MA10 cells. Cells were maintained at 37° C. in a humidified incubator under 5% CO2. To isolate mitochondria, cells were removed from tissue culture plates by gentle scrapping in phosphate-buffered saline at room temperature, incubated in hypotonic buffer (10 mM HEPES, pH 7.4) for 30 to 40 min, and mitochondria were isolated following readily available procedures. The mitochondrial preparation was verified by Western blotting with the cytochrome P450 SCC enzyme (Corgen, Tapai, Taiwan) and calnexin antibodies (Santa Cruz Biotechnology, Inc., Santa Cruz, Calif.).
(§2) Stock solutions (1 mM) of the ligands were made in 1× phosphate buffered saline, filter-sterilized, and then further diluted up to 1 μM with serum-free medium. Cell viability was determined by the 3-[4,5-dimethylthiazol-2yl]-2,5-diphenyltetrazolium bromide assay using a commercially available kit following the manufacturer's instructions (Promega, Madison, Wis.). MA-10 cells were plated in a 96-well plate at an initial density of 4×10^3 cells per well for 24 h at 37° C. in 5% CO2 atm. After 24 h of serum starvation, the culture media were changed to serum-free media containing 1, 5, 10, 50, and 100 nM concentration for each KSCM ligand. Next, the cells were incubated for 2 to 3 h with 0.5 mg/ml of 3-[4,5-dimethylthiazol-2yl]-2,5-diphenyltetrazolium bromide reagent and lysed with dimethyl sulfoxide, and the absorbance was measured at 550 nm (FlexStation 3; Molecular Devices, Sunnyvale, Calif.).

[3] = tested on: VDAC2; assay: Western blot / densitometry, expression of VDAC2 in MA-10 cells; type: cell-based, mouse; conditions: increasing concentrations
Procedure: as §1
(§3) Protein (12.5 μg) was separated by 15% SDS-polyacrylamide gel electrophoresis and transferred to a polyvinylidinedifluoride membrane (Millipore Corporation, Billerica, Mass.). The membrane was blocked with 3% nonfat dry milk for 45 min, probed overnight with the primary antibodies, and then incubated with […] goat anti-rabbit or anti mouse IgG (Thermo Fisher Scientific, Waltham, Mass.). Signals were developed with chemiluminescent reagent (Thermo Fisher Scientific). For loading control of all Western blots, the membrane was stained with β-actin antibody, which was previously independently stained with StAR or 3-β-hydroxysteroid dehydrogenase (3βHSD2) or VDAC1 and VDAC2 antiserum. The band intensity was determined by using Image Quant 5.2 (Phosphorimager; GE Healthcare, Chalfont St. Giles, Buckinghamshire, UK). Densitometric calculation may reflect the ratio of σ1 or VDAC2 and β-actin following an established procedure that is readily available.
(§4) In addition, VDAC2 antibody (FIG. 3E) was used to probe and was compared with β-actin expression (FIG. 3F) of the same membrane.

[4] = biological target: T2, 5-HT2A (Homo sapiens, UniProt P28223); assay: Primary binding assay at non-sigma receptors: 5-HT2A; conditions: 10 μM (final) assay concentration
T2 construct: expressed in transfected cells
T2 sequence (P28223 whole entry): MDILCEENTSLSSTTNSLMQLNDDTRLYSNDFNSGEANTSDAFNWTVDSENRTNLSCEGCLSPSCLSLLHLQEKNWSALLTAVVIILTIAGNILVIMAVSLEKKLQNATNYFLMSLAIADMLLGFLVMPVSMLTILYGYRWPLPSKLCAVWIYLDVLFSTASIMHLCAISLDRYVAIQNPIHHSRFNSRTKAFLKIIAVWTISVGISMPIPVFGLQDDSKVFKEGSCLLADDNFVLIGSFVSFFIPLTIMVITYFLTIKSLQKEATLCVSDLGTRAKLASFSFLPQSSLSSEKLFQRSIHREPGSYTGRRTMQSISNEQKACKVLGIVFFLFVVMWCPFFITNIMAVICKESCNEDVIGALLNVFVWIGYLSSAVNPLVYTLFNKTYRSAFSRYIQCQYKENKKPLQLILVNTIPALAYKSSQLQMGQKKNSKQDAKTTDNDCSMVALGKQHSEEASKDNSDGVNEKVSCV
Procedure: (§5) Initial primary binding screening assays were performed using a 50 μM (initial)−10 μM (final) assay concentration of reference and test compounds.

[5] = biological target: T3, σ1 receptor (Rattus norvegicus, UniProt Q9R0C9); assay: Secondary binding assay, Ki determination at σ1 receptor ([3H]pentazocine); conditions: rat brain homogenate, read-out: σ-1 (Ki)
T3 construct: crude membrane fractions prepared from rat brain homogenate for σ1 receptors; from tissue; host or cells: rat brain homogenate, crude membrane fraction
T3 sequence (Q9R0C9 whole entry): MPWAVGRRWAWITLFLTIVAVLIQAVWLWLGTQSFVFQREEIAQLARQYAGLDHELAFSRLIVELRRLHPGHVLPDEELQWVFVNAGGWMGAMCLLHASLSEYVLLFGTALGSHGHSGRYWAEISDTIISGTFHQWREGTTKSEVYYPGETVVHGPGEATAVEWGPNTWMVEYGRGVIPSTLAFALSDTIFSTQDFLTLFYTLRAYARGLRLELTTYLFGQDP

[6] = biological target: T4, M4 (Homo sapiens, UniProt P08173); assay: Primary binding assay at non-sigma receptors: M4; conditions: 10 μM (final) assay concentration
T4 construct: expressed in transfected cells
T4 sequence (P08173 1-479): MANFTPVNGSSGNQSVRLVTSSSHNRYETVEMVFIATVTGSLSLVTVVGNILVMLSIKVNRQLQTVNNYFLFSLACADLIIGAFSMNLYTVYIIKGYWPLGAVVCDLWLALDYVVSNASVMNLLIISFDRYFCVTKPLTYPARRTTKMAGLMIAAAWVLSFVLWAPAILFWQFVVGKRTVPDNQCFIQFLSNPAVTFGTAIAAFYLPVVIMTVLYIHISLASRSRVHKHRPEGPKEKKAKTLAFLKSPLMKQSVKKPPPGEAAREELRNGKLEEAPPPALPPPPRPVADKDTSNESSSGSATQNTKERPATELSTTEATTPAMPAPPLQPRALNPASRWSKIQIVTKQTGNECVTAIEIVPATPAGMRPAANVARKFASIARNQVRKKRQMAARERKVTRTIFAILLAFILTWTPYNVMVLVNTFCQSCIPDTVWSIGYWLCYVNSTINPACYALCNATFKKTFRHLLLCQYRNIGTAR
Procedure: as §5

[7] = biological target: T5, D3 (Homo sapiens, UniProt P35462); assay: Primary binding assay at non-sigma receptors: D3; conditions: 10 μM (final) assay concentration
T5 construct: expressed in transfected cells
T5 sequence (P35462 whole entry): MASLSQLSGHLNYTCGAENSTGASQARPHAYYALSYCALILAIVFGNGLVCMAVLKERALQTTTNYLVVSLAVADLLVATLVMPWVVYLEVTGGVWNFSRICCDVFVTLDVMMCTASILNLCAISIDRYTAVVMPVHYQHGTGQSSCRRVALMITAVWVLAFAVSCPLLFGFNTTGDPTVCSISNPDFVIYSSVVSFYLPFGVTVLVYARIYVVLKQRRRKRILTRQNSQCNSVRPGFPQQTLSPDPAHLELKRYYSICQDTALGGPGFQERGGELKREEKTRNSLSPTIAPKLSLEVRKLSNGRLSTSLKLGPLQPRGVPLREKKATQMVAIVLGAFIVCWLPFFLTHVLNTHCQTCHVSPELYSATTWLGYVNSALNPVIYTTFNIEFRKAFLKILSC
Procedure: as §5

[8] = biological target: T1, Alpha2C; assay: Primary binding assay at non-sigma receptors: Alpha2C; conditions: 10 μM (final) assay concentration
Procedure: as §5

[9] = tested on: 3βHSD2; assay: Western blot, expression of 3βHSD2 in MA-10 cells; type: cell-based, mouse; conditions: any concentration
Procedure: as §1, §3, §4

[10] = tested on: MA-10 cells; assay: Cell viability assay (MTT) in MA-10 cells; type: cell-based, mouse; conditions: 24 h, varying concentrations
Procedure: as §1, §2

[11] = biological target: T6, 5-HT2B (Homo sapiens, UniProt P41595); assay: Secondary binding assay, Ki determination: 5-HT2B
T6 construct: expressed in transfected cells
T6 sequence (P41595 whole entry, species assumed): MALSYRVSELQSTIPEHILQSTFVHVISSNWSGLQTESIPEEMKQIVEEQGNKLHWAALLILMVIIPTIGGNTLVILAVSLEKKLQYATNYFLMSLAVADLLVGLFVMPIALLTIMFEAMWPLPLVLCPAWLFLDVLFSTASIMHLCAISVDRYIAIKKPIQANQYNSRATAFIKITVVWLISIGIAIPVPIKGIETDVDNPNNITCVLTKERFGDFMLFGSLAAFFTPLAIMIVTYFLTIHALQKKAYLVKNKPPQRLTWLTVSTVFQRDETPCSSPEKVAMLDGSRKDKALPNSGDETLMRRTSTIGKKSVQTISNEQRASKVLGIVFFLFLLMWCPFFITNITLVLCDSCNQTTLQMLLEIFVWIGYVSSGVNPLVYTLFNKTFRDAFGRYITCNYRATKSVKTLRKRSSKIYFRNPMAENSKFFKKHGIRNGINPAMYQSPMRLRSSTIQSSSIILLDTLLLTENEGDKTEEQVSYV

Row | Compound | Ki [1] | cytotoxicity at 24 h, 1 nM [2] | cytotoxicity at 24 h, 100 nM [2] | expression of VDAC2 (in words) [3] | inhibition at 10 µM [4] | Ki [5] | inhibition at 10 µM [6] | inhibition at 10 µM [7] | inhibition at 10 µM [8] | level of 3βHSD2 (in words) [9] | toxicity / effect on cell viability compared among the ligands (in words) [10] | Ki [11] | cytotoxicity at 24 h ([2]; 1-5 nM)
1 | COc1cc2oc(C(=O)N(CCCN3CCCCC3)c3ccccc3)c(C)c2cc1OC [KSCM-1, 5,6-Dimethoxy-3-methyl-N-phenyl-N-(3-(piperidin-1-yl)propyl)benzofuran-2-carboxamide] | 1540 nM | 3.5% | 16% | increased with increasing concentrations | 76.6% | 27 nM and 27.5 nM | 54.4% | 38.8% | 78.9% | no change |  |  | 
2 | Cc1c(C(=O)N(CCCN2CCCCC2)c2ccccc2)oc2ccccc12 [KSCM-5, 3-Methyl-N-phenyl-N-(3-(piperidin-1-yl)propyl)benzofuran-2-carboxamide] | 249 nM | 28% | 74% | decreased with increasing concentrations | 18.1% |  | 43.1% |  | 61.9% | no change | most potent decrease in cell viability; also recorded: greatest toxicity | 936 nM | 
3 | COc1ccc2c(C)c(C(=O)N(CCCN3CCCCC3)c3ccccc3)oc2c1 [KSCM-11, 6-Methoxy-3-methyl-N-phenyl-N-(3-(piperidin-1-yl)propyl)benzofuran-2-carboxamide] |  |  |  | decreased with increasing concentrations | 61.2% | 34 nM | 68.4% | 40.6% | 49% | no change | greater cytotoxic effect than KSCM-1 | 204 nM | 3.3%
